“Also recorded” adds a separate entry of the source. Blank lines part the entries; values can stand above or below the compound they belong to.
Experiments:
hsFATP5 = target: T1, hsFATP5 (Homo sapiens, UniProt Q9Y2P5); assay: BODIPY-FA; format: cell-based; details: hsFATP5 cells, data not shown
T1 sequence (Q9Y2P5 1-690): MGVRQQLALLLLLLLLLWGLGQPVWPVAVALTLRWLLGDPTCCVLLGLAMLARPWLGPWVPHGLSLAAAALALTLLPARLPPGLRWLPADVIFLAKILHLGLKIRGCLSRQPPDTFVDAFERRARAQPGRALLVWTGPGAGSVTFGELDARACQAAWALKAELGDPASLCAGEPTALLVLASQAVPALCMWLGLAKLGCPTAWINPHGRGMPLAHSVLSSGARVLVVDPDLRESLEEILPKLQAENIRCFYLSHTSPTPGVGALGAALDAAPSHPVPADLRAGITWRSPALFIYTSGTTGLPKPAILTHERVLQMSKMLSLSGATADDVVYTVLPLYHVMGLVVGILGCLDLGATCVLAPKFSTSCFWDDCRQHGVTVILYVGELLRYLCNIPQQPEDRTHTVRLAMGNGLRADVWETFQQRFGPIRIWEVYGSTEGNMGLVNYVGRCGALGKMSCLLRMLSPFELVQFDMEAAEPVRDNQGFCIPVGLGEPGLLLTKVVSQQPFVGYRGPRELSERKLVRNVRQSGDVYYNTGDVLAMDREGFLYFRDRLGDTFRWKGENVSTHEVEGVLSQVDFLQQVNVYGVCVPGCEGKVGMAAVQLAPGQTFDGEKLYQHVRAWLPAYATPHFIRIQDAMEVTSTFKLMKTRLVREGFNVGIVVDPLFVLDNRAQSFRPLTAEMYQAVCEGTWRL

hsFATP4 = hsFATP4 (Homo sapiens, UniProt Q6P1M0); assay: BODIPY-FA; format: cell-based; details: hsFATP4 cells
Chain of hsFATP4 (Q6P1M0 whole entry): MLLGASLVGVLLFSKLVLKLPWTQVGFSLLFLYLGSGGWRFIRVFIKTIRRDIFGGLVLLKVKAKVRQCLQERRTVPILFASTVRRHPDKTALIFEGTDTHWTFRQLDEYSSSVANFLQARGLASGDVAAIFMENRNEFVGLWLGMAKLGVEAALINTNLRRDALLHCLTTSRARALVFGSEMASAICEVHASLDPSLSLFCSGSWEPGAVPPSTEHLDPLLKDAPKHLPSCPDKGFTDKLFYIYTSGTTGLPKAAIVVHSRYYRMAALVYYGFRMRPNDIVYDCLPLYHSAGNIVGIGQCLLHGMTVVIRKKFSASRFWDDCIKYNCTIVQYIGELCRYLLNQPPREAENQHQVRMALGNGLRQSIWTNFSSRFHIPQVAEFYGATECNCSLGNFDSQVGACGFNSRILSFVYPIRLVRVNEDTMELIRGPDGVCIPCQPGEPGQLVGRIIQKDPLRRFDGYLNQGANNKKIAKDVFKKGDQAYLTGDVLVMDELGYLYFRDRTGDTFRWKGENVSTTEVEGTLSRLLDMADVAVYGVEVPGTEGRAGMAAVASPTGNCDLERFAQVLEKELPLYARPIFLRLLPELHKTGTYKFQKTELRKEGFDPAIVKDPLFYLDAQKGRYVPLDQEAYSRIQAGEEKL

[1] = system: undifferentiated 3T3-L1 preadipocytes; assay: BODIPY-FA uptake in undifferentiated 3T3-L1 preadipocytes/fibroblasts, FLIPR; format: cell-based, murine
3T3-L1 adipocytes = assay: LCFA; format: cell-based, murine; details: insulin 0.2 – 1.7 uM

- inhibition of fatty acid uptake by FATP5 (in words) (hsFATP5): did not inhibit
- inhibition of fatty acid uptake by FATP4 (in words) (hsFATP4; FLIPR concentration-response): did not inhibit
Compound: CCCCCCCCCCCCCCCC(=O)O [palmitic acid]

- increase of fatty acid uptake signal by hsFATP4 at high concentration (in words) (hsFATP4; FLIPR): apparent signal increase at 100 uM
Compound: C[C@H](CCC(=O)O)[C@H]1CC[C@H]2[C@@H]3[C@@H](O)C[C@@H]4C[C@H](O)CC[C@]4(C)[C@H]3CC[C@]12C [ursodiol, ursodeoxycholic acid]

Compound: insulin: adipogenic hormone insulin, enhances LCFA uptake in adipocytes
- effect on uptake in undifferentiated 3T3-L1 preadipocytes/fibroblasts [1]: much weaker effects; also recorded: minimal effect
- maximal insulin-induced uptake over the baseline of adipocytes (3T3-L1 adipocytes): about two- to three-fold

Reference: paper PMC2887688 (Journal of biomolecular screening, 2010)
